Experimental findings from patent US10004701B2, “Methods and compositions for treating infection” (UNIVERSITY OF ROCHESTER, priority 2012, dated 2018) are described below.

The structures appear in SMILES notation. Where a name gives a salt, the structure may show the parent alone. Read-outs that look alike come from different tables or passages of the source.

Common to all, as to experiment: AK assay 384-well format, Prestwick library screening
For one experiment, the system named is E. faecium. Type of experiment: cell-based, Enterococcus faecium. The conditions noted are these: 50 μM final drug concentration; for fold induction at 50 µM: Enterococcus faecium, 3 h.
For experiment [1], the system named is S. aureus strain USA300-0114. The class given is cell-based, Staphylococcus aureus. The settings on record: 50 μM final drug concentration; for fold induction at 50 µM: Staphylococcus aureus, USA300, 3 h.
The test system of the next experiment is K. pneumoniae. The class given is cell-based, Klebsiella pneumoniae. The settings on record: 50 μM final drug concentration; for fold induction at 50 µM: Klebsiella pneumoniae, 3 h.
The test system of experiment [2] is A. baumannii strain 98-37-09. Type of experiment: cell-based, Acinetobacter baumannii. The settings on record: 50 μM final drug concentration; for fold induction at 50 µM: Acinetobacter baumannii, 983709, 3 h.
The next experiment has as its system P. aeruginosa. Type of experiment: cell-based, Pseudomonas aeruginosa. The conditions noted are these: 50 μM final drug concentration; for fold induction at 50 µM: Pseudomonas aeruginosa, 3 h.
In another experiment the test system is E. cloacae. The class given is cell-based, Enterobacter cloacae. The conditions noted are these: 50 μM final drug concentration; for fold induction at 50 µM: Enterobacter cloacae, 3 h.
The next experiment has as its system E. coli. Type of experiment: cell-based, Escherichia coli. The conditions noted are these: 50 μM final drug concentration; for fold induction at 50 µM: Escherichia coli, 3 h.
The mark [3] stands for this setting: 384-well format, cutoff for positive-scoring molecules 3-fold increase, read-out: AK-based Prestwick Library Screening Results, E. faecium (increase in extracellular AK activity).
Where [4] appears, read: 384-well format, cutoff for positive-scoring molecules 3-fold increase, read-out: AK-based Prestwick Library Screening Results, S. aureus (increase in extracellular AK activity).
Where [5] appears, read: 384-well format, cutoff for positive-scoring molecules 3-fold increase, read-out: AK-based Prestwick Library Screening Results, K. pneumoniae (increase in extracellular AK activity).
[6] abbreviates: 384-well format, cutoff for positive-scoring molecules 3-fold increase, read-out: AK-based Prestwick Library Screening Results, A. baumannii (increase in extracellular AK activity).
[7] abbreviates: 384-well format, cutoff for positive-scoring molecules 3-fold increase, read-out: AK-based Prestwick Library Screening Results, P. aeruginosa (increase in extracellular AK activity).
Setting [8] is: 384-well format, cutoff for positive-scoring molecules 3-fold increase, read-out: AK-based Prestwick Library Screening Results, E. cloacae (increase in extracellular AK activity).
[9] abbreviates: 384-well format, cutoff for positive-scoring molecules 3-fold increase, read-out: AK-based Prestwick Library Screening Results, E. coli (increase in extracellular AK activity).
[10] abbreviates: planktonic E. faecium, 384-well, cutoff for positive-scoring molecules 3-fold increase, read-out: AK-based Prestwick Library Screening Results: E. faecium (increase in extracellular AK activity).
[11] abbreviates: planktonic S. aureus, 384-well, cutoff for positive-scoring molecules 3-fold increase, read-out: AK-based Prestwick Library Screening Results: S. aureus (increase in extracellular AK activity).
Setting [12] is: planktonic K. pneumoniae, 384-well, cutoff for positive-scoring molecules 3-fold increase, read-out: AK-based Prestwick Library Screening Results: K. pneumoniae (increase in extracellular AK activity).
Setting [13] is: planktonic A. baumannii, 384-well, cutoff for positive-scoring molecules 3-fold increase, read-out: AK-based Prestwick Library Screening Results: A. baumannii (increase in extracellular AK activity).
[14] abbreviates: planktonic P. aeruginosa, 384-well, cutoff for positive-scoring molecules 3-fold increase, read-out: AK-based Prestwick Library Screening Results: P. aeruginosa (increase in extracellular AK activity).
[15] abbreviates: planktonic E. cloacae, 384-well, cutoff for positive-scoring molecules 3-fold increase, read-out: AK-based Prestwick Library Screening Results: E. cloacae (increase in extracellular AK activity).
The mark [16] stands for this setting: planktonic E. coli, 384-well, cutoff for positive-scoring molecules 3-fold increase, read-out: AK-based Prestwick Library Screening Results: E. coli (increase in extracellular AK activity).
[17] abbreviates: cutoff for positive-scoring molecules 3-fold increase.

Turning to `COC(=O)Nc1nc2ccc(C(=O)c3cccs3)cc2[nH]1` [Nocodazole], the fold induction at 50 µM in the experiment with E. faecium (setting [3]) is 0.9; in experiment [1] (setting [4]) it was 0.6; in the experiment on K. pneumoniae (setting [5]) it was 0.5; in experiment [2] (setting [6]), 0.6; in the experiment on P. aeruginosa (setting [7]), 0.6; with E. cloacae (setting [8]) it was 0.7. In the experiment with E. coli (setting [9]), the fold induction at 50 µM stood at 0.6.
For `CC(=O)O[C@]1(C(C)=O)CC[C@H]2[C@@H]3C=C(C)C4=CC(=O)CC[C@@H]4[C@H]3CC[C@@]21C` [Nomegestrol acetate], the fold induction at 50 µM with E. faecium (planktonic E. faecium, positive cutoff 3-fold increase, read-out: AK-based Prestwick library screening result, E. faecium (fold increase in extracellular AK activity)) amounted to 1.2; in experiment [1] (planktonic S. aureus, positive cutoff 3-fold increase, read-out: AK-based Prestwick library screening result, S. aureus (fold increase in extracellular AK activity)), 1; in the experiment with K. pneumoniae (planktonic K. pneumoniae, positive cutoff 3-fold increase, read-out: AK-based Prestwick library screening result, K. pneumoniae (fold increase in extracellular AK activity)), 1.1; in experiment [2] (planktonic A. baumannii, positive cutoff 3-fold increase, read-out: AK-based Prestwick library screening result, A. baumannii (fold increase in extracellular AK activity)), 1.1; with P. aeruginosa (planktonic P. aeruginosa, positive cutoff 3-fold increase, read-out: AK-based Prestwick library screening result, P. aeruginosa (fold increase in extracellular AK activity)), 1.1; with E. cloacae (planktonic E. cloacae, positive cutoff 3-fold increase, read-out: AK-based Prestwick library screening result, E. cloacae (fold increase in extracellular AK activity)) it was 1.5. Moreover, in the experiment with E. coli (planktonic E. coli, positive cutoff 3-fold increase, read-out: AK-based Prestwick library screening result, E. coli (fold increase in extracellular AK activity)), the fold induction at 50 µM stood at 1.1.
On to `CN1Cc2c(N)cccc2C(c2ccccc2)C1` (centres unmarked) [Nomifensine maleate], for which the fold induction at 50 µM with E. faecium (setting [3]) is 0.9; in experiment [1] (setting [4]) it was 0.7; with K. pneumoniae (setting [5]) it was 0.8; in experiment [2] (setting [6]), 0.8; in the experiment on P. aeruginosa (setting [7]), 0.8; with E. cloacae (setting [8]), 1. The fold induction at 50 µM in the experiment with E. coli (384-well format, […], read-out: AK-based Prestwick Library Screening Results, E. coli (increase in extracellular AK activity)) came out at 0.9.
Turning to `CNCCC=C1c2ccccc2C=Cc2ccccc21` [Norcyclobenzaprine], the “AK-based Prestwick Library Screening Results, E. faecium (increase in extracellular AK activity)” value with E. faecium (planktonic E. faecium, cutoff for positive-scoring molecules 3-fold increase) turned out to be 0.8. In experiment [1] (planktonic S. aureus, cutoff for positive-scoring molecules 3-fold increase), the “AK-based Prestwick Library Screening Results, S. aureus (increase in extracellular AK activity)” value is on record as 0.6. The “AK-based Prestwick Library Screening Results, K. pneumoniae (increase in extracellular AK activity)” value in the experiment on K. pneumoniae (planktonic K. pneumoniae, cutoff for positive-scoring molecules 3-fold increase) is 0.9. Further, the “AK-based Prestwick Library Screening Results, A. baumannii (increase in extracellular AK activity)” value in experiment [2] (planktonic A. baumannii, cutoff for positive-scoring molecules 3-fold increase) is given as 1.1. Besides, the “AK-based Prestwick Library Screening Results, P. aeruginosa (increase in extracellular AK activity)” value in the experiment on P. aeruginosa (planktonic P. aeruginosa, cutoff for positive-scoring molecules 3-fold increase) amounted to 1.0. Also, in the experiment with E. cloacae (planktonic E. cloacae, cutoff for positive-scoring molecules 3-fold increase), the “AK-based Prestwick Library Screening Results, E. cloacae (increase in extracellular AK activity)” value came out at 1.3. Moreover, the “AK-based Prestwick Library Screening Results, E. coli (increase in extracellular AK activity)” value with E. coli (planktonic E. coli, cutoff for positive-scoring molecules 3-fold increase) amounted to 6.3.
For `C#C[C@]1(O)CC[C@H]2[C@@H]3CCC4=CC(=O)CC[C@@H]4[C@H]3CC[C@@]21C` [Norethindrone], the fold induction at 50 µM in the experiment on E. faecium (setting [3]) came to 1; in experiment [1] (setting [4]), 0.8; with K. pneumoniae (setting [5]), 0.7; in experiment [2] (setting [6]), 0.7; with P. aeruginosa (setting [7]) it was 0.8; in the experiment on E. cloacae (setting [8]), 0.9. Moreover, the fold induction at 50 µM in the experiment on E. coli (setting [9]) was 0.7.
Regarding `C#C[C@]1(O)CC[C@H]2[C@@H]3CCC4=C(CCC(=O)C4)[C@H]3CC[C@@]21C` [Norethynodrel], the fold induction at 50 µM in the experiment on E. faecium (setting [3]) was 0.9; in experiment [1] (setting [4]) it was 0.7; with K. pneumoniae (setting [5]), 0.7; in experiment [2] (setting [6]), 0.7; in the experiment on P. aeruginosa (setting [7]), 0.8; with E. cloacae (setting [8]), 1. Besides, in the experiment with E. coli (setting [9]), the fold induction at 50 µM was determined as 0.9.
Take `CCn1cc(C(=O)O)c(=O)c2cc(F)c(N3CCNCC3)cc21` [Norfloxacin]: the fold induction at 50 µM with E. faecium (setting [10]) amounted to 1.5; in experiment [1] (setting [11]), 1.8; in the experiment with K. pneumoniae (setting [12]), 0.8; in experiment [2] (setting [13]) it was 3.1; in the experiment on P. aeruginosa (setting [14]), 31.3; in the experiment on E. cloacae (setting [15]), 3.1. For the same compound, the fold induction at 50 µM with E. coli (setting [16]) was 33.1.
Take `C#C[C@]1(O)CC[C@H]2[C@@H]3CCC4=CC(=O)CC[C@@H]4[C@H]3CC[C@@]21CC` [Norgestrel-(−)-D]: the “AK-based Prestwick Library Screening Results, E. faecium (fold increase in extracellular AK activity)” value in the experiment with E. faecium (setting [17]) is 1.0. For the same compound, the “AK-based Prestwick Library Screening Results, S. aureus (fold increase in extracellular AK activity)” value in experiment [1] (setting [17]) worked out at 1.1. For the same compound, in the experiment on K. pneumoniae (setting [17]), the “AK-based Prestwick Library Screening Results, K. pneumoniae (fold increase in extracellular AK activity)” value was found to be 1.1. Also, the “AK-based Prestwick Library Screening Results, A. baumannii (fold increase in extracellular AK activity)” value in experiment [2] (setting [17]) is listed as 1.1. The “AK-based Prestwick Library Screening Results, P. aeruginosa (fold increase in extracellular AK activity)” value in the experiment with P. aeruginosa (setting [17]) stood at 1.1. Further, in the experiment with E. cloacae (setting [17]), the “AK-based Prestwick Library Screening Results, E. cloacae (fold increase in extracellular AK activity)” value is 1.7. The “AK-based Prestwick Library Screening Results, E. coli (fold increase in extracellular AK activity)” value in the experiment on E. coli (setting [17]) is on record as 1.0.
Consider `CNCCC=C1c2ccccc2CCc2ccccc21` [Nortriptyline hydrochloride], for which the fold induction at 50 µM is 0.9 with E. faecium (setting [3]); 1 in experiment [1] (setting [4]); 0.7 in the experiment with K. pneumoniae (setting [5]); 0.9 in experiment [2] (setting [6]); 0.8 in the experiment with P. aeruginosa (setting [7]); 0.9 with E. cloacae (setting [8]). The fold induction at 50 µM in the experiment on E. coli (setting [9]) amounted to 0.9.
For the compound `COc1ccc2c(c1OC)C(=O)O[C@@H]2[C@H]1c2c(cc3c(c2OC)OCO3)CCN1C` [Noscapine], the fold induction at 50 µM in the experiment with E. faecium (setting [10]) stood at 0.9; in experiment [1] (setting [11]), 0.5; in the experiment on K. pneumoniae (setting [12]), 0.5; in experiment [2] (setting [13]), 0.6; with P. aeruginosa (setting [14]) it was 0.5; in the experiment on E. cloacae (setting [15]), 0.6. Besides, in the experiment with E. coli (setting [16]), the fold induction at 50 µM was determined as 0.6.
Regarding `CO[C@@H]1[C@@H](OC(N)=O)[C@@H](O)[C@H](Oc2ccc3c(O)c(NC(=O)c4ccc(O)c(CC=C(C)C)c4)c(=O)oc3c2C)OC1(C)C` [Novobiocin sodium salt], the fold induction at 50 µM was 1.5 with E. faecium (planktonic, cutoff for positive-scoring molecules 3-fold increase, read-out: AK-based Prestwick Library Screening Results, E. faecium (fold increase in extracellular AK activity)); 4.5 in experiment [1] (planktonic, cutoff for positive-scoring molecules 3-fold increase, read-out: AK-based Prestwick Library Screening Results, S. aureus (fold increase in extracellular AK activity)); 0.7 in the experiment with K. pneumoniae (planktonic, cutoff for positive-scoring molecules 3-fold increase, read-out: AK-based Prestwick Library Screening Results, K. pneumoniae (fold increase in extracellular AK activity)); 1.1 in experiment [2] (planktonic, cutoff for positive-scoring molecules 3-fold increase, read-out: AK-based Prestwick Library Screening Results, A. baumannii (fold increase in extracellular AK activity)); 1 with P. aeruginosa (planktonic, cutoff for positive-scoring molecules 3-fold increase, read-out: AK-based Prestwick Library Screening Results, P. aeruginosa (fold increase in extracellular AK activity)); 1.6 with E. cloacae (planktonic, cutoff for positive-scoring molecules 3-fold increase, read-out: AK-based Prestwick Library Screening Results, E. cloacae (fold increase in extracellular AK activity)). Moreover, the fold induction at 50 µM with E. coli (planktonic, cutoff for positive-scoring molecules 3-fold increase, read-out: AK-based Prestwick Library Screening Results, E. coli (fold increase in extracellular AK activity)) was found to be 3.2.
